Here are results for 2 compounds from patent publication US7429580B2, “Compositions of an anticonvulsant and an antipsychotic drug and methods of using the same for affecting weight loss” (Orexigen Therapeutics, Inc., priority 2004, dated 2008).

“Also recorded” adds a separate entry of the source. Where two headings read alike, the source gives them in different places.

The subject of one data set is mice. Description: Food intake in mice (acute, after fast / intra-peritoneal injection). Type of data set: in vivo. The conditions noted are these: for food intake: other preclinical experiments, each compound alone.
Data set [1] is described as follows: Rat-weight gain assay: rodent model of mirtazapine-induced weight gain. As to conditions: addition to concomitant mirtazapine treatment; doses tbd. It is filed as in vivo, rats. How it is done:
We have developed a model to pre-clinically test the effects of mirtazapine on body weight gain. […] Initially, a dose of 30 mg/kg of zonisamide (bid) is used, but the dose in the experiment ranges from 20 mg/kg to 90 mg/kg (bid). […] Mirtazapine or setiptiline are used as solutions in minipumps. The concentration of the solution ranges between 0.1 μM to 10 mM. In some experiments, the concentration is calculated to provide a dose of about 1 mg/kg/day. In certain experiments, the concentration is 10 μM.
In a 4×3 design rats receive implants that secrete mirtazapine, or setiptiline, or vehicle. Some rats also receive co-treatment with saline, some receive zonisamide, some receive bupropion, and others receive co-treatment with zonisamide plus bupropion. In this way cohorts of 10 rats receive all possible combinations of the weight loss drug(s) with mirtazapine or setiptiline.
Female Sprague-Dawley rats weighing about 300 grams at the start of the experiment are used. Under isoflurane anesthesia, Alzet osmotic minipumps (2 ml2) are implanted subcutaneously between the shoulder blades. The rats are returned to their home cages after recovery. The minipumps deliver 5 μL per hour for 14 days. A range of doses of mirtazapine (from 0.1 to 20 mg/kg/day dissolved in DMSO/saline) are used. […] Food consumed and animal weights are recorded every 3 days, to minimize disruption of the animals.

The subject of a further data set is POMC neurons. Description: Electrophysiological activity of POMC neurons in brain slices from POMC-EGFP mice. It is filed as cell-based. How it is done:
The electrophysiological activity of Proopiomelanocortin (POMC) neurons in brain slices from POMC-EGFP mice are recorded. The POMC neurons in these mice are identified by the expression of green fluorescent protein (EGFP) in these, and only these, cells. The frequency of action potentials in these neurons are recorded using standard electrophysiological techniques. In particular loose cell attached patch configuration is used to determine action potential frequency, whilst minimally disturbing the cells.
The electrophysiological activity of Proopiomelanocortin (POMC) neurons in brain slices from POMC-EGFP mice are recorded. The POMC neurons in these mice are identified by the expression of green fluorescent protein (EGFP) in these, and only these, cells. The frequency of action potentials in these neurons are recorded using standard electrophysiological techniques. In particular, loose cell attached patch configuration is used to determine action potential frequency, whilst minimally disturbing the cells.

Data set [2] is described as follows: Case study Example 13: zonisamide, paroxetine and risperidone. Type of data set: in vivo, human. Here is the method: They were therefore started on zonisamide 100 mg, incraesed to 200 mg. […] The dose was then increased to 300 mg and then to 600 mg.
Data set [3] in a line: Case study Example 14: zonisamide, olanzapine, valproate and bupropion. Type of data set: in vivo, human. The conditions noted are these: for effect on weight gain resulting from olanzapine and valproate: summary of the case. Here is the method:
At this point, zonisamide was added to their medication regimen at 100 mg/day and the dose was increased to 200 mg/day after two weeks.

A further data set has as its target dopamine D2 receptors (Homo sapiens, UniProt P14416). The conditions noted are these: cited from earlier work.
The conditions of data set [4]: cited from earlier work.
For data set [5], the system named is serotonin and dopamine synthesis. As to conditions: cited from earlier work.
Data set [6] in a line: Rodent model of olanzapine-induced weight gain. As to conditions: addition to concomitant olanzapine treatment (about 1.75 mg/kg/day); doses tbd. It is filed as in vivo, rats. How it is done: Rats receive implants that secrete olanzapine (or vehicle in control groups). Some also receive co-treatment with zonisamide; others get co-treatment with zonisamide plus bupropion. Initially, a dose of 30 mg/kg of zonisamide (bid) is used, but the dose in the experiment ranges from 20 mg/kg to 90 mg/kg (bid). […] Olanzapine is used as a solution in minipumps. The concentration of the solution ranges between 0.1 μM to 10 mM. In some experiments, the concentration is calculated to provide a dose of about 1.75 mg/kg/day. In certain experiments, the concentration is 10 μM.
Female Sprague-Dawley rats weighing about 300 grams at the start of the experiment are used. Under isoflurane anesthesia, Alzet osmotic minipumps (2 ml2) are implanted subcutaneously, between the shoulder blades. The rats are returned to their home cages after recovery. The minipumps deliver 5 μL per hour for 14 days. Olanzapine is dissolved in dH2O+10% dilute lactic acid. A pH of about 3.5 enables the olanzapine to dissolve completely and produce a golden solution. This pH level has no effect on the animals in either the drug groups or the vehicle group. The animals are housed individually and are supplied with standard laboratory chow. Food consumed and animal weights are recorded every 3 days, to minimize disruption of the animals.

Data set [7] in a line: Case study Example 12: zonisamide added to clonazepam, fluoxetine and lamotrogine. Type of data set: in vivo, human. The conditions noted are these: person, bipolar disorder; zonisamide 100 mg qD added to clonazepam, fluoxetine, lamotrogine. Here is the method: A person having biopolar disorder, Type I, had been treated for just over year by their psychiatrist using clonazepam 1 mg qHS, fluoxetine 20 mg qd, and lamotrogine 300 mg qD. One particular complaint was that they had “constant thoughts of eating”. Their psychiatrist started them on zonisamide 100 mg qD. […] The dose was continued and despite multiple stressors at home, they continued to do well on the treatment regimen.

Sequence of dopamine D2 receptors (P14416 whole entry): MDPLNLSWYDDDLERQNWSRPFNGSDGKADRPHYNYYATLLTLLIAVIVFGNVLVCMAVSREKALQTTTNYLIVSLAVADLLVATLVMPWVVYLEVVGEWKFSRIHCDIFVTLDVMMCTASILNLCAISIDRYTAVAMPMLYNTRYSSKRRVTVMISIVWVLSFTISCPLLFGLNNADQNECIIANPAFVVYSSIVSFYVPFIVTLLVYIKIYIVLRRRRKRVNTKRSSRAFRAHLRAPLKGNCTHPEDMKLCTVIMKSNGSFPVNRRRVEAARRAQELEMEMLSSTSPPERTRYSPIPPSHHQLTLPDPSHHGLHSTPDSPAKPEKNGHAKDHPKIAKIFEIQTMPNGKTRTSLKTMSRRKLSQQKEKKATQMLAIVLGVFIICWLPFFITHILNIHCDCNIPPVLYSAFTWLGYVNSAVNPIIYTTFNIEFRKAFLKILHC

With `CC(NC(C)(C)C)C(=O)c1cccc(Cl)c1` (stereo not shown) [bupropion], the “food intake after intra-peritoneal injection” value in the data set on mice (mice) is recorded as “pronounced effects on food intake”. Further, the food intake result in the data set on mice is given as “inhibit food intake”. In addition, in data set [1], the “weight gain associated with mirtazapine” value is given as “decreases the weight gain associated with mirtazapine”. In addition, the “electrophysiological activity of POMC neurons” value in the data set on POMC neurons is recorded as “increase the electrophysiological activity of POMC neurons”. Further, the weight loss entry in data set [2] (trial of bupropion alone, patient on paroxetine and risperidone) is listed as “did not cause significant weight loss”. The weight lost in data set [3] (after 6 months, bupropion 150 mg/day added to olanzapine and valproate) was found to be 23.6 lbs. Also, the adverse effect reported result in data set [3] (bupropion dose raised to 300 mg/day) was “feeling hyperactive”. The “adverse effect limiting higher dose” value in data set [3] (higher dose (300-400 mg/day) of bupropion) was “precipitation of hypomanic symptoms”. The weight regained in [3] (over the next 10 months while continuing bupropion) is reported as 10.6 lbs. Also, in data set [3], the “effect on weight gain resulting from olanzapine and valproate” value is listed as “helped in decreasing weight gain”.

Turning to `NS(=O)(=O)Cc1noc2ccccc12` [zonisamide], at dopamine D2 receptors, the “stimulation of dopamine D2 receptors” value is reported as “stimulates dopamine D2 receptors”. In addition, in [4] (Gadde et al, 2003, 2001), the “weight reducing effects in humans” value is listed as “well demonstrated in humans”. The “tolerability / side effects” value in [4] (compared with placebo treatment, Gadde et al, JAMA 2003) is recorded as “well tolerated; also recorded: fatigue being the only side effect that occurred more frequently than with placebo treatment”. Moreover, the weight loss result in data set [4] (patients presenting with primary obesity, Gadde et al, JAMA 2003) was “significant weight loss”. Also, in the data set on mice (mice), the “food intake after intra-peritoneal injection” value is listed as “pronounced effects on food intake” and the “food intake over 24 hrs after intra-peritoneal injection” value was “pronounced effects on food intake”. In the data set with mice, the food intake entry is “inhibit food intake”. The “serotonin and dopamine synthesis rates” value in data set [5] is “increases serotonin and dopamine synthesis rates”. Moreover, the “weight gain associated with mirtazapine” value in data set [1] is on record as “decreases the weight gain associated with mirtazapine”. For the same compound, the “electrophysiological activity of POMC neurons” value with POMC neurons is “increase the electrophysiological activity of POMC neurons”. In [2] (in 3 weeks, zonisamide 100 mg increased to 200 mg), the weight lost is given as 12 pounds. Besides, in data set [2] (in 5 months, zonisamide increased to 300 mg and then 600 mg), the “weight relative to baseline” value is given as “their weight returned to baseline”. The “weight gain associated with olanzapine” value in data set [6] was “decrease the weight gain associated with olanzapine”. Also, in data set [7], the craving for food result is “significantly reduced their craving for food” and the weight gain entry is “prevented weight gain”. Further, the weight lost in data set [3] (over the next 4 months, zonisamide 100 then 200 mg/day added to bupropion, olanzapine, valproate) is on record as 15 lbs. Also, the “effect on weight gain resulting from olanzapine and valproate” value in data set [3] is on record as “helped in further offsetting weight gain”. Moreover, the adverse effects entry in data set [3] (zonisamide 100 then 200 mg/day added to bupropion, olanzapine, valproate) is “no adverse effects”.
